Test results published in patent US20110224210A1, “NOVEL BIS-AMIDES AS ANTI-MALARIAL AGENTS” (priority 2008, published 2011).

tested on: P. falciparum K1 (strain resistant to chloroquine and pyrimethamine), erythrocytic stages; assay: Plasmodium falciparum in vitro assay, [3H] hypoxanthine incorporation; assay type: cell-based; conditions: Plasmodium falciparum, K1, P. falciparum strain K1; [3H] hypoxanthine incorporation; read-out: IC50 (nM) on K1
Summary of the method: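 K1 strain parasites grown in human red cells, 2.5% haematocrit, 0.3% parasitaemia, 37 °C, 4% CO2/3% O2; compounds in seven serial doubling dilutions.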

| SMILES | IC50 [nM] |
| --- | --- |
| COCCN(C)C(=O)[C@H](Cc1ccccc1)N(Cc1ccc(N2CCOCC2)cc1)C(=O)C=Cc1csnn1 [Example 66, (S)-N-{1-[(2-Methoxy-ethyl)-methyl-carbamoyl]-2-phenyl-ethyl}-N-(4-morpholin-4-yl-benzyl)-3-[1,2,3]thiadiazol-4-yl-acrylamide] | 494 |
| O=C(NCCN1CCCCCC1)[C@H](Cc1ccccc1)N(Cc1ccc(-c2ccccn2)cc1)C(=O)C=Cc1ccc(C(F)(F)F)cc1 [Example 154] | 420 |
| CC(=O)N1CCN(c2ccc(CN(C(=O)C=Cc3ccc(C(F)(F)F)cc3)[C@@H](Cc3ccccc3)C(=O)N(C)CCOCc3cccc(OC(F)(F)F)c3)cc2)CC1 [Example 186, (S)-N-[4-(4-Acetyl-piperazin-1-yl)-benzyl]-N-(1-{methyl-[2-(3-trifluoromethoxy-benzyloxy)-ethyl]-carbamoyl}-2-phenyl-ethyl)-3-(4-trifluoromethyl-phenyl)-acrylamide, formic acid] | 58 |
| Cc1cc(C=CC(=O)N(Cc2ccc(-c3ccncc3)cc2)[C@@H](Cc2ccccc2)C(=O)N2CCC(N(C)C)CC2)n(C)n1 [Example 20, (S)-N-[1-Benzyl-2-(4-dimethylamino-piperidin-1-yl)-2-oxo-ethyl]-3-(2,5-dimethyl-2H-pyrazol-3-yl)-N-(4-pyridin-4-yl-benzyl)-acrylamide] | 116 |
| COCCN(C)C(=O)[C@H](Cc1ccccc1)N(Cc1ccc(N2CCN(C(C)=O)CC2)cc1)C(=O)C=Cc1ccc(Cl)nc1 [Example 113, (S)-N-[4-(4-Acetyl-piperazin-1-yl)-benzyl]-3-(6-chloro-pyridin-3-yl)-N-{1-[(2-methoxy-ethyl)-methyl-carbamoyl]-2-phenyl-ethyl}-acrylamide] | 84 |
| CN(C)C1CCN(C(=O)[C@H](Cc2ccccc2)N(Cc2ccc(-c3cncnc3)cc2)C(=O)C=Cc2ccc(C(F)(F)F)cn2)CC1 [Example 42, (S)-N-[1-Benzyl-2-(4-dimethylamino-piperidin-1-yl)-2-oxo-ethyl]-N-(4-pyrimidin-5-yl-benzyl)-3-(5-trifluoromethyl-pyridin-2-yl)-acrylamide] | 104 |
| COCCN(C)C(=O)C(Cc1ccn(C)n1)N(Cc1ccc(-c2ccccn2)cc1)C(=O)C=Cc1ccc(C(F)(F)F)cc1 (racemic) [Example 165] | 76 |
| CC(=O)N1CCN(c2ccc(CN(C(=O)C=Cc3ccc(C(F)(F)F)cc3)[C@@H](Cc3ccccc3)C(=O)N(C)CCN(C)Cc3ccc(N(C)CCO)cc3)cc2)CC1 [Example 237, (S)-N-[4-(4-Acetyl-piperazin-1-yl)-benzyl]-N-(1-{[2-({4-[(2-hydroxy-ethyl)-methyl-amino]-benzyl}-methyl-amino)-ethyl]-methyl-carbamoyl}-2-phenyl-ethyl)-3-(4-trifluoromethyl-phenyl)-acrylamide] | 55 |
| CCc1ccc(CN(C(=O)C=Cc2ccc(C)cc2)[C@@H](Cc2ccccc2)C(=O)N(C)CCOC)cc1 [Example 161, (S)-N-(4-Ethyl-benzyl)-N-{1-[(2-methoxy-ethyl)-methyl-carbamoyl]-2-phenyl-ethyl}-3-p-tolyl-acrylamide] | 49 |
| COCCNc1ccc(CN(C)C(=O)[C@H](Cc2ccccc2)N(Cc2ccc(N3CCOCC3)cc2)C(=O)C=Cc2ccc(C(F)(F)F)nc2)cc1 [Example 277] | 47 |
| COCCN(C)C(=O)C(Cc1ccnn1C)N(Cc1ccc(-c2ccncc2)cc1)C(=O)C=Cc1ccc(C(F)(F)F)cc1 (racemic) [Example 168] | 349 |
| COCCN(C)C(=O)[C@H](Cc1ccccc1)N(Cc1ccc(-c2cncnc2)cc1)C(=O)C=Cc1csc(C)n1 [Example 122, (S)-N-{1-[(2-Methoxy-ethyl)-methyl-carbamoyl]-2-phenyl-ethyl}-3-(2-methyl-thiazol-4-yl)-N-(4-pyrimidin-5-yl-benzyl)-acrylamide] | 156 |
| COCCN(C)C(=O)C(Cc1ccon1)N(Cc1ccc(-c2ccncc2)cc1)C(=O)C=Cc1ccc(C(F)(F)F)cc1 (racemic) [Example 169] | 312 |
| CCN(CC)c1ccc(CN(C)CCN(C)C(=O)[C@H](Cc2ccccc2)N(Cc2ccc(N3CCOCC3)cc2)C(=O)C=Cc2ccc(C(F)(F)F)cc2)cc1 [Example 257, (S)-N-[1-({2-[(4-Diethylamino-benzyl)-methyl-amino]-ethyl}-methyl-carbamoyl)-2-phenyl-ethyl]-N-(4-morpholin-4-yl-benzyl)-3-(4-trifluoromethyl-phenyl)-acrylamide] | 65 |
| O=C([C@H](Cc1ccccc1)N(Cc1ccc(-c2cncnc2)cc1)C(=O)C=Cc1ccc(C(F)(F)F)cc1)N1CCc2ccccc21 [Example 57, (S)-N-[1-Benzyl-2-(2,3-dihydro-indol-1-yl)-2-oxo-ethyl]-N-(4-pyrimidin-5-yl-benzyl)-3-(4-trifluoromethyl-phenyl)-acrylamide] | 89 |
| CN(C)CCN(Cc1ccccc1)C(=O)[C@H](Cc1ccccc1)N(Cc1ccc(-c2ccccn2)cc1)C(=O)C=Cc1ccc(C(F)(F)F)cc1 [Example 174] | 430 |
| CN(Cc1ccc(NC(=O)C2CC2)cc1)C(=O)[C@H](Cc1ccccc1)N(Cc1ccc(N2CCOCC2)cc1)C(=O)C=Cc1ccc(C(F)(F)F)nc1 [Example 273, (S)-Cyclopropanecarboxylic acid (4-{[methyl-(2-{(4-morpholin-4-yl-benzyl)-[3-(6-trifluoromethyl-pyridin-3-yl)-acryloyl]-amino}-3-phenyl-propionyl)-amino]-methyl}-phenyl)-amide] | 75 |
| CC(=O)N1CCN(c2ccc(CN(C(=O)C=Cc3ccc(C(F)(F)F)nc3)[C@@H](Cc3ccccc3)C(=O)N(C)CCOCc3ccncc3)cc2)CC1 [Example 208, (S)-N-[4-(4-Acetyl-piperazin-1-yl)-benzyl]-N-(1-{methyl-[2-(pyridin-4-ylmethoxy)-ethyl]-carbamoyl}-2-phenyl-ethyl)-3-(6-trifluoromethyl-pyridin-3-yl)-acrylamide] | 57 |

Molecules with a lower IC50, results first:

| IC50 [nM] | SMILES |
| --- | --- |
| 8 | O=C([C@H](Cc1ccccc1)N(Cc1ccccc1)C(=O)C=Cc1ccc(C(F)(F)F)nc1)N1CCC(Cc2ccccc2)CC1 [Example 48, (S)-N-Benzyl-N-[1-benzyl-2-(4-benzyl-piperidin-1-yl)-2-oxo-ethyl]-3-(6-trifluoromethyl-pyridin-3-yl)-acrylamide] |
| 20 | CN(CCN(C)C(=O)[C@H](Cc1ccccc1)N(Cc1ccc(-c2ccccn2)cc1)C(=O)C=Cc1ccc(C(F)(F)F)cc1)Cc1cccs1 [Example 225, (S)-N-(1-{Methyl-[2-(methyl-thiophen-2-ylmethyl-amino)-ethyl]-carbamoyl}-2-phenyl-ethyl)-N-(4-pyridin-2-yl-benzyl)-3-(4-trifluoromethyl-phenyl)-acrylamide] |
| 27 | COCCN(C)C(=O)[C@H](Cc1ccccc1)N(Cc1ccc(-c2ccccn2)cc1)C(=O)C=Cc1ccc(C)cn1 [Example 86, (S)-N-{1-[(2-Methoxy-ethyl)-methyl-carbamoyl]-2-phenyl-ethyl}-3-(5-methyl-pyridin-2-yl)-N-(4-pyridin-2-yl-benzyl)-acrylamide] |
| 26 | COc1ccc(CN(C)CCN(C)C(=O)[C@H](Cc2ccccc2)N(Cc2ccc(N3CCN(C(C)=O)CC3)cc2)C(=O)C=Cc2ccc(C(F)(F)F)cc2)cn1 [Example 247, (S)-N-[4-(4-Acetyl-piperazin-1-yl)-benzyl]-N-[1-({2-[(6-methoxy-pyridin-3-ylmethyl)-methyl-amino]-ethyl}-methyl-carbamoyl)-2-phenyl-ethyl]-3-(4-trifluoromethyl-phenyl)-acrylamide] |
| 25 | CN(CCN(C)C(=O)[C@H](Cc1ccccc1)N(Cc1ccc(N2CCOCC2)cc1)C(=O)C=Cc1ccc(C(F)(F)F)cc1)Cc1ccncc1 [Example 270, (S)-N-(1-{Methyl-[2-(methyl-pyridin-4-ylmethyl-amino)-ethyl]-carbamoyl}-2-phenyl-ethyl)-N-(4-morpholin-4-yl-benzyl)-3-(4-trifluoromethyl-phenyl)-acrylamide] |
| 21 | COCCN(C)C(=O)[C@H](Cc1ccccc1)N(Cc1ccc(-c2cncnc2)cc1)C(=O)C=Cc1ccc(Cl)cn1 [Example 127, (S)-3-(5-Chloro-pyridin-2-yl)-N-{1-[(2-methoxy-ethyl)-methyl-carbamoyl]-2-phenyl-ethyl}-N-(4-pyrimidin-5-yl-benzyl)-acrylamide] |
| 26 | O=C([C@H](Cc1ccccc1)N(Cc1ccc(-c2ccccn2)cc1)C(=O)C=Cc1ccc(C(F)(F)F)cc1)N1CCc2cccnc2C1 [Example 149, (S)-N-[1-Benzyl-2-(5,8-dihydro-6H-[1,7]naphthyridin-7-yl)-2-oxo-ethyl]-N-(4-pyridin-2-yl-benzyl)-3-(4-trifluoromethyl-phenyl)-acrylamide] |
| < 8 | COCCN(C)C(=O)[C@H](Cc1ccccc1)N(Cc1ccc(-c2cncnc2)cc1)C(=O)C=Cc1ccc(C(F)(F)F)cn1 [Example 130, (S)-N-{1-[(2-Methoxy-ethyl)-methyl-carbamoyl]-2-phenyl-ethyl}-N-(4-pyrimidin-5-yl-benzyl)-3-(5-trifluoromethyl-pyridin-2-yl)-acrylamide] |
| 27 | CC(=O)N1CCN(c2ccc(CN(C(=O)C=Cc3ccc(C(F)(F)F)cc3)[C@@H](Cc3ccccc3)C(=O)N(C)CCN(C)Cc3cccnc3)cc2)CC1 [Example 241, (S)-N-[4-(4-Acetyl-piperazin-1-yl)-benzyl]-N-(1-{methyl-[2-(methyl-pyridin-3-ylmethyl-amino)-ethyl]-carbamoyl}-2-phenyl-ethyl)-3-(4-trifluoromethyl-phenyl)-acrylamide] |
| 29 | CN(CCOCc1cccc(C#N)c1)C(=O)[C@H](Cc1ccccc1)N(Cc1ccc(N2CCOCC2)cc1)C(=O)C=Cc1ccc(C(F)(F)F)cc1 [Example 197, (S)-N-(1-{[2-(3-Cyano-benzyloxy)-ethyl]-methyl-carbamoyl}-2-phenyl-ethyl)-N-(4-morpholin-4-yl-benzyl)-3-(4-trifluoromethyl-phenyl)-acrylamide] |
| 10 | COCCN(C)C(=O)[C@H](Cc1ccccc1)N(Cc1ccc(N2CCN(C(C)=O)CC2)cc1)C(=O)C=Cc1ccc(C(F)(F)F)cc1 [Example 178, (S)-N-[4-(4-Acetyl-piperazin-1-yl)-benzyl]-N-{1-[(2-methoxy-ethyl)-methyl-carbamoyl]-2-phenyl-ethyl}-3-(4-trifluoromethyl-phenyl)-acrylamide] |
